Data published in PMC4833300, “Identification of Trypanocidal Activity for Known Clinical Compounds Using a New Trypanosoma cruzi Hit-Discovery Screening Cascade” (PLoS Neglected Tropical Diseases, 2016).
Read-outs that look alike come from different tables or passages of the source.

Key:
[1] = system: intracellular T. cruzi amastigotes; assay: Primary high-content intracellular T. cruzi amastigote assay; assay type: cell-based, Trypanosoma cruzi (Silvio X10/7 A1) in Vero cells; conditions: for EC50: Trypanosoma cruzi, read-out: pEC50 (cruzi) (converted)
Method: (§1) The compounds tested were obtained from the NIH (Clinical Collection) and from SelleckChem (FDA-approved drug library). Compounds were dispensed into black 384-well assay plates (Corning) by acoustic dispensing (LabCyte ECHO). […] Potencies are reported as pEC50 (-LOG(EC50[M])).
(§2) For the primary intracellular assay the infection conditions were chosen so that no trypomastigote egress occurs during the compound incubation time. First, Vero cells were infected overnight with tissue culture derived T. cruzi trypomastigotes in T225 tissue culture flasks (MOI 5). Next, any remaining free trypomastigotes were washed away with serum free MEM and the infected Vero cells were harvested by trypsinisation. The infected Vero cells were then plated into 384-well plates containing the compounds to be tested, at 4000 cells per well in MEM media with 1% FCS. […] The plates were imaged on a Perkin Elmer Operetta high-content imaging system using a 20x objective. Images were analysed using the Columbus system (Perkin Elmer). The algorithm for the primary assay first identified the Vero nuclei followed by demarcation of the cytoplasm and identification of intracellular amastigotes. This algorithm reported mean number of parasites per Vero cell and total number of Vero cells. Data analysis was as described in [22]. […] Hits from the primary screen were selected based on the following criteria: T. cruzi activity (percent inhibition) > (median T. cruzi percent inhibition + 3 x robust Standard Deviation) and Vero activity (percent inhibition) < (median percent Vero inhibition + 3 x robust Standard Deviation).

Vero cells = assay: Host cell toxicity read-out of the primary assay (Vero cell count); assay type: cell-based; conditions: for EC50: Chlorocebus sabaeus, Vero, read-out: pEC50 (Vero) (converted)
Method: as §1, §2

intracellular T. cruzi = assay: Static-cidal assay (percent infected Vero cells, 96 h); assay type: cell-based, Trypanosoma cruzi (Silvio X10/7 A1) in Vero cells; conditions: Trypanosoma cruzi, Vero; 96 h; 0% = starting level of infection, 100% = 50μM Nifurtimox at 96h; only from concentrations not toxic to the host cells; read-out: MAX PI (SC), Maximum Percent Inhibition in the static cidal assay
Method: The secondary static-cidal assay uses the same protocol as the standard assay with the following changes: infection is done at MOI 10, and infected Vero cells are incubated 88h at 37°C in presence of 5% CO2 prior to trypsinisation and plating. Four hours after plating a control plate (no compounds) was fixed with formaldehyde as described above. Compound containing plates were fixed after incubation for 96 hours. Compounds are run as ten point dose response curves in triplicate. The algorithm for the secondary assay was similar to the primary assay but reported percent infected Vero cells instead of the mean number of parasites.
To assess screening hits for their ability to be cytocidal rather than cytostatic or growth slowing we developed a medium throughput (400 compounds / batch) assay to predict cidality of compounds against intracellular T. cruzi. […] Instead we developed an algorithm that assesses whether a Vero cell is infected or not, and we used the percentage of infected cells as primary measurement for the static-cidal assay. In order to readily identify cidal compounds we normalised the raw data using the starting level of infection as 0% effect and the final level of infection in presence of 50μM Nifurtimox as 100% effect control.

[2] = hits of the bio-actives screen, 10-point dose-response, top concentration 50μM, 72h

| Compound | EC50 [1, 2] | EC50 (Vero cells; [2]) | further results |
| --- | --- | --- | --- |
| Nc1ncnc2c1ncn2[C@@H]1O[C@H](CO)C[C@H]1O [3'-deoxydenosine] |  |  | pEC50 (cruzi) [1, 2]: 5.6; pEC50 (Vero) (Vero cells; [2]): 4.3 |
| CCCCC(=O)O[C@H]1CC[C@H]2[C@@H]3CCc4cc(O)ccc4[C@H]3CC[C@]12C [17β-estradiol 17-valerate] |  |  | pEC50 (cruzi) [1, 2]: 5.0; pEC50 (Vero) (Vero cells; [2]): 4.9 |
| CC(C)(C)C(=O)OCOP(=O)(COCCn1cnc2c(N)ncnc21)OCOC(=O)C(C)(C)C [Adefovir Dipivoxil] | 6.31 µM | 15.8 µM |  |
| CCC(C)(C)c1ccc(CC(C)CN2C[C@@H](C)O[C@@H](C)C2)cc1 (stereo partly drawn) [Amorolfine] | 10 µM | 15.8 µM |  |
| COC(=O)C1=C(C)NC(C)=C(C(=O)OC2CCCN(Cc3ccccc3)C2)C1c1cccc([N+](=O)[O-])c1 (stereo not drawn) [Benidipine] | 2 µM | 10 µM |  |
| CC(COc1ccccc1Cc1ccccc1)N1CCCCC1 (stereo not drawn) [Benproperine] | 1.26 µM | 15.8 µM |  |
| CN1CCN(c2nc3cc(C(F)(F)F)ccc3n3cccc23)CC1.O=C(O)/C=C\C(=O)O.O=C(O)/C=C\C(=O)O [CGS 12066B] |  |  | pEC50 (cruzi) [1, 2]: 5.5; pEC50 (Vero) (Vero cells; [2]): 4.8 |
| CCOc1nc2cccc(C(=O)OC(C)OC(=O)OC3CCCCC3)c2n1Cc1ccc(-c2ccccc2-c2nnn[nH]2)cc1 (stereo not drawn) [Candesartan cilexetil] | 6.31 µM | 12.6 µM |  |
| COC(=O)C1=C(C)NC(C)=C(C(=O)OCCN(C)Cc2ccccc2)C1c1cccc([N+](=O)[O-])c1 (stereo not drawn) [Cardene] | 3.98 µM | 15.8 µM |  |
| COc1ccccc1OCCNCC(O)COc1cccc2[nH]c3ccccc3c12 (stereo not drawn) [Carvedilol] | 5.01 µM | 15.8 µM |  |
| CN(C)CCCN1c2ccccc2Sc2ccc(Cl)cc21 [Chlorpromazine] | 3.98 µM | 10 µM |  |
| CN(C)CC/C=C1/c2ccccc2Sc2ccc(Cl)cc21 [Chlorprothixene] | 3.16 µM | 15.8 µM |  |
| COCCOC(=O)C1=C(C)NC(C)=C(C(=O)OC/C=C/c2ccccc2)C1c1cccc([N+](=O)[O-])c1 (stereo not drawn) [Cilnidipine] | 1.26 µM | 15.8 µM |  |
| C#C[C@]1(O)CC[C@H]2[C@@H]3CCC4=Cc5oncc5C[C@]4(C)[C@H]3CC[C@@]21C [Danazol] | 3.98 µM | 15.8 µM |  |
| CN(C)[C@@H](CCOc1cccc2ccccc12)c1ccccc1 [Dapoxetine] | 5.01 µM | 15.8 µM |  |
| CCOC(=O)C1(c2ccccc2)CCN(CCC(C#N)(c2ccccc2)c2ccccc2)CC1 [Diphenoxylate] |  |  | EC50 ([1]; 72 h): 2.51 µM; EC50 (Vero cells; 72 h): 15.8 µM |
| COc1cc2nc(N3CCN(C(=O)C4COc5ccccc5O4)CC3)nc(N)c2cc1OC (stereo not drawn) [Doxazosin] | 5.01 µM | 15.8 µM |  |
| CNCC[C@H](Oc1cccc2ccccc12)c1cccs1 [Duloxetine] |  |  | EC50 ([1]; 72 h): 6.31 µM; EC50 (Vero cells; 72 h): 15.8 µM |
| C[C@]12C=CC(=O)N[C@@H]1CC[C@@H]1[C@@H]2CC[C@]2(C)[C@@H](C(=O)Nc3cc(C(F)(F)F)ccc3C(F)(F)F)CC[C@@H]12 [Dutasteride] |  |  | EC50 ([1]; 72 h): 15.8 µM; EC50 (Vero cells; 72 h): 15.8 µM |
| C=C1[C@H](CO)[C@@H](O)C[C@@H]1n1cnc2c(=O)[nH]c(N)nc21 [Entecavir] | 3.98 µM | 15.8 µM |  |
| CCOC(=O)c1cncn1[C@H](C)c1ccccc1 [Etomidate] |  |  | EC50 ([1]; 72 h): 5.01 µM; EC50 (Vero cells; 72 h): 50.1 µM |
| CCOC(=O)C1=C(C)NC(C)=C(C(=O)OC)C1c1cccc(Cl)c1Cl (stereo not drawn) [Felodipine] | 5.01 µM | 15.8 µM |  |

| Compound | EC50 [1, 2] | EC50 (Vero cells; [2]) | further results |
| --- | --- | --- | --- |
| C[C@]12CC[C@@H]3c4ccc(O)cc4C[C@@H](CCCCCCCCC[S+]([O-])CCCC(F)(F)C(F)(F)F)[C@H]3[C@@H]1CC[C@@H]2O (stereo partly drawn) [Fulvestrant] | 5.01 µM | 15.8 µM |  |
| C=CCc1ccc(O)c(-c2ccc(O)c(CC=C)c2)c1 [Honokiol] | 2 µM | 7.94 µM |  |
| CNC1CC(c2ccc(Cl)c(Cl)c2)c2ccccc21 (stereo not drawn) [Indatraline] |  |  | EC50 ([1]; 72 h): 5.01 µM; EC50 (Vero cells; 72 h): 12.6 µM |
| COc1ccc(CN2CCN(C(c3ccc(F)cc3)c3ccc(F)cc3)CC2)c(OC)c1OC [Lomerizine] | 3.98 µM | 15.8 µM |  |
| Cc1ccc(NC(=O)c2ccc(CN3CCN(C)CC3)cc2)cc1Nc1nc(-c2cccnc2)cs1 [Masitinib] | 2 µM | 7.94 µM |  |
| Cc1cccc(CN2CCN(C(c3ccccc3)c3ccc(Cl)cc3)CC2)c1 (stereo not drawn) [Meclizine] | 5.01 µM | 20 µM |  |
| CCCCC/C=C\C/C=C\C/C=C\C/C=C\CCCC(=O)Nc1ccc(O)cc1 [N-arachidonoylaminophenol] |  |  | pEC50 (cruzi) [1, 2]: 5.7; pEC50 (Vero) (Vero cells; [2]): 4.8 |
| COCCOC(=O)C1=C(C)NC(C)=C(C(=O)OC(C)C)C1c1cccc([N+](=O)[O-])c1 (stereo not drawn) [Nimodipine] | 2 µM | 15.8 µM |  |
| CCOC(=O)C1=C(C)NC(C)=C(C(=O)OC)C1c1cccc([N+](=O)[O-])c1 (stereo not drawn) [Nitrendipine] | 3.98 µM | 15.8 µM |  |
| NC(=O)N/N=C/c1ccc([N+](=O)[O-])o1 [Nitrofurazone] | 1 µM | 15.8 µM |  |
| Fc1ccc([C@@H]2CCNC[C@H]2COc2ccc3c(c2)OCO3)cc1 [Paroxetine] | 5.01 µM | 12.6 µM |  |
| O=C1[C@H]2CCCC[C@H]2C(=O)N1CCCCN1CCN(c2nsc3ccccc23)CC1 [Perospirone] | 6.31 µM | 15.8 µM |  |
| c1ccc2c(c1)Nc1ccccc1S2 [Phenothiazine] |  |  | EC50 ([1]; 72 h): 2.51 µM; EC50 (Vero cells; 72 h): 15.8 µM |
| COC(=O)[C@H]1[C@H]2C[C@@H]3c4[nH]c5cc(OC)ccc5c4CCN3C[C@H]2C[C@@H](OC(=O)c2cc(OC)c(OC)c(OC)c2)[C@@H]1OC [Reserpine] | 3.98 µM | 50.1 µM |  |
| CO[C@H]1/C=C/O[C@@]2(C)Oc3c(C)c(O)c4c(O)c(c(/C=N/N5CCN(C6CCCC6)CC5)c(O)c4c3C2=O)NC(=O)/C(C)=C\C=C\[C@H](C)[C@H](O)[C@@H](C)[C@@H](O)[C@@H](C)[C@H](OC(C)=O)[C@@H]1C [Rifapentine] | 10 µM | 15.8 µM |  |
| C[C@@H]1CN(CCCn2c3ccccc3c3ccccc32)C[C@H](C)N1 [Rimcazole] | 5.01 µM | 10 µM |  |
| C=C(C)CN1CC[C@]23c4c5ccc(O)c4O[C@H]2c2[nH]c4ccccc4c2C[C@@]3(O)C1C5.Cl.O [SDM25N] |  |  | pEC50 (cruzi) [1, 2]: 5.2; pEC50 (Vero) (Vero cells; [2]): 4.8 |
| C[C@]12Cc3c[nH]nc3C[C@@H]1CC[C@@H]1[C@@H]2CC[C@@]2(C)[C@H]1CC[C@]2(C)O [Stanozolol] |  |  | EC50 ([1]; 72 h): 5.01 µM; EC50 (Vero cells; 72 h): 15.8 µM |
| CN1CCN(CC/C=C2/c3ccccc3Sc3ccc(S(=O)(=O)N(C)C)cc32)CC1 [Thiothixene] | 5.01 µM | 7.94 µM |  |
| Oc1cc(Cl)ccc1Oc1ccc(Cl)cc1Cl [Triclosan] |  |  | EC50 ([1]; 72 h): 7.94 µM; EC50 (Vero cells; 72 h): 10 µM |
| C[C@@H](c1ncncc1F)[C@](O)(Cn1cncn1)c1ccc(F)cc1F [Voriconazole] | 0.0251 µM | 50.1 µM | Emax (intracellular T. cruzi): 70% |
